Measured values as given in the Deep4Chem optical property database.

Experiment: solvent given as SMILES

SMILES: CC1=N/C(=C\c2ccc(C#N)c(N(C)C)c2)C(=O)N1C
- emission maximum (in C1CCOC1): 568 nm
- emission maximum (in CC#N): 592 nm
- emission maximum (in CCCCCC): 496 nm

SMILES: COc1ccc2c(c1)sc1[n+]2[B-](F)(F)OC(c2ccc(N(C)C)cc2)=N1
- emission maximum (in C1CCOC1): 466 nm
- emission maximum (in CC#N): 481 nm
- emission maximum (in CC(C)=O): 477 nm
- emission maximum (in Cc1ccccc1): 454 nm
- emission maximum (in ClCCl): 467 nm

SMILES: CC1(C)C2=[N+](CCCCCC(=O)NCCCNC(=O)CCCCCN3/C(=C/C=C/C=C/C=C/2)C(C)(C)c2cc(S(=O)(=O)[O-])ccc23)c2ccc(S(=O)(=O)[O-])cc21
- emission maximum (in CO): 776 nm
- emission maximum (in O): 768 nm

SMILES: C(=C\c1cc[n+](Cc2ccccc2)cc1)/c1cc[n+](Cc2ccccc2)cc1
- emission maximum (in CC#N): 426 nm

SMILES: COc1ccccc1-c1c2ccc(=[N+]3CCCCC3)cc-2oc2cc(N3CCCCC3)ccc12
- emission maximum (in CCO): 586 nm
- emission maximum (in ClCCl): 585 nm

SMILES: CN(C)c1ccc(C#Cc2ncnc3ccccc23)cc1
- emission maximum (in C1CCCCC1): 444 nm
- emission maximum (in C1CCOC1): 540 nm
- emission maximum (in CC#N): 573 nm
- emission maximum (in CS(C)=O): 583 nm
- emission maximum (in ClCCl): 560 nm

SMILES: C[Si]1(C)O[Si](C)(C)c2cc3c(-c4ccccc4F)c4cc(Cl)ccc4nc3cc21
- emission maximum (in ClCCl): 498 nm

SMILES: Clc1cc(Cl)c(B2c3ccccc3Nc3ccccc32)c(Cl)c1
- emission maximum (in ClCCl): 413 nm

SMILES: S=P1(c2ccccc2)c2cccc3ccc4ccc1n4c23 (stereo not drawn)
- emission maximum (in ClCCl): 490 nm

SMILES: CN(C)c1ccc(C2=Cc3ccc4ccccc4[n+]3[B-](F)(F)O2)cc1
- emission maximum (in C1CCOC1): 540 nm
- emission maximum (in C1COCCO1): 516 nm
- emission maximum (in CC1CCCCC1): 478 nm
- emission maximum (in CC#N): 573 nm
- emission maximum (in CCOC(C)=O): 534 nm
- emission maximum (in CCOCC): 509 nm
- emission maximum (in CN(C)C=O): 581 nm
- emission maximum (in CO): 564 nm
- emission maximum (in COC(C)=O): 562 nm
- emission maximum (in ClC(Cl)Cl): 521 nm

SMILES: Cc1cc(C)c(C)c(B(c2c(C)c(C)cc(C)c2C)c2c(C)c(C)c(N3c4ccccc4Oc4ccccc43)c(C)c2C)c1C
- emission maximum (in CC(C)(C)c1ccc(-n2c3ccc([Si](c4ccccc4)(c4ccccc4)c4ccccc4)cc3c3cc([Si](c4ccccc4)(c4ccccc4)c4ccccc4)ccc32)cc1): 478 nm

SMILES: CCCCCCN(c1ccccc1)c1ccc2c(c1)C(CC)(CC)c1cc(/C=C/c3ccc(/C=C(\C#N)C(=O)O)s3)ccc1-2
- emission maximum (in C1CCOC1): 651 nm
- emission maximum (in C1COCCO1): 620 nm
- emission maximum (in CC#N): 554 nm
- emission maximum (in CC(C)=O): 574 nm
- emission maximum (in CCOC(C)=O): 654 nm
- emission maximum (in CN(C)C=O): 605 nm
- emission maximum (in CS(C)=O): 627 nm
- emission maximum (in ClCCl): 594 nm

SMILES: Cc1ccc(N(c2ccc(C)cc2)c2ccc(-c3cc4c(cc(-c5ccc(N(c6ccc(C)cc6)c6ccc(C)cc6)cc5)c5nsnc54)c4nsnc34)cc2)cc1
- emission maximum (in Cc1ccccc1): 659 nm
- emission maximum (in ClCCl): 683 nm

SMILES: CC1(C)c2ccccc2N(c2ccc(C(=C(C#N)C#N)c3ccc(N4c5ccccc5C(C)(C)c5ccccc54)cc3)cc2)c2ccccc21
- emission maximum (in Cc1ccccc1): 649 nm

SMILES: COc1ccc(-c2nc3ccccc3nc2/C=C/N2CCCC2)s1
- emission maximum (in CC#N): 583.94 nm

SMILES: c1ccc(-c2nc(-c3ccccc3)nc(-c3ccc(N4c5ccccc5C5(c6ccccc64)c4ccccc4C4(c6ccccc6Sc6ccccc64)c4ccccc45)cc3)n2)cc1
- emission maximum (in Cc1ccccc1): 468.93 nm

SMILES: CCCCc1cc(-c2cccc(COC)c2)oc1-c1cccc(-c2oc(-c3cccc(COC)c3)cc2CCCC)c1
- emission maximum (in ClC(Cl)Cl): 371 nm

SMILES: CC(C)(C)NC1=CC2=c3cc(NC(C)(C)C)c4nc(C(F)(F)C(F)(F)C(F)(F)F)nc5c(NC(C)(C)C)cc(c3c54)C3=CC(NC(C)(C)C)=C4N=C(C(F)(F)C(F)(F)C(F)(F)F)N=C1C4C32 (stereo not drawn)
- emission maximum (in C1CCOC1): 666 nm

SMILES: CCOC(=O)COc1ccc(/C=C/C2=C3C(C)=CC(/C=C/c4ccc(OCC(=O)OCC)cc4)=[N+]3[B-](F)(F)n3c2c2ccccc2c3-c2[nH]c(C)cc2C)cc1
- emission maximum (in ClCCl): 733 nm

SMILES: CCC12C(=C3C(=C4c5ccc(-c6ccc(CO)cc6)cc5S(=O)(=O)C41CC)C(F)(F)C(F)(F)C3(F)F)c1ccc(-c3ccc(CO)cc3)cc1S2(=O)=O (stereo not drawn)
- emission maximum (in C1COCCO1): 538.57 nm

SMILES: CC(C)(C)c1ccc2c(c1)c1ncncc1c1c3ccccc3sc21
- emission maximum (in ClCCl): 414 nm

SMILES: C[Si](C)(c1ccc(-c2nc3ccccc3n2-c2ccccc2)cc1)c1ccc(-c2nc3ccccc3n2-c2ccccc2)cc1
- emission maximum (in ClCCl): 359 nm

SMILES: N#Cc1c(-n2c3ccccc3c3ccccc32)c(F)c(-n2c3ccccc3c3ccccc32)c(-n2c3ccccc3c3ccccc32)c1-n1c2ccccc2c2ccccc21
- emission maximum (in Cc1ccccc1): 453 nm
- emission maximum (in c1ccc([Si](c2ccccc2)(c2ccc(-n3c4ccccc4c4ccccc43)cc2)c2ccc(-n3c4ccccc4c4ccccc43)cc2)cc1): 470 nm

SMILES: c1cc2c3c(c1)-c1ccc4c5c(ccc(c15)B3c1ccc3c5c(ccc-2c15)CC3)CC4
- emission maximum (in Cc1ccccc1): 516 nm

SMILES: CCN(CC)c1ccc(/N=N/c2nc3ccc(Br)cc3s2)cc1
- emission maximum (in CC#N): 580 nm
- emission maximum (in ClCCl): 578 nm

SMILES: C#CCN1C(=O)/C(=C/c2cc(OC(C)C)ccc2OC(C)C)N=C1C
- emission maximum (in C1COCCO1): 476 nm
- emission maximum (in CC#N): 508 nm
- emission maximum (in CC(C)=O): 487 nm
- emission maximum (in CCCCCC): 440 nm
- emission maximum (in CCCCO): 516 nm
- emission maximum (in CCCO): 521 nm
- emission maximum (in CCO): 523 nm
- emission maximum (in CCOC(C)=O): 475 nm
- emission maximum (in CN(C)C=O): 500 nm
- emission maximum (in CO): 538 nm
- emission maximum (in CS(C)=O): 510 nm

SMILES: N#Cc1cccc(-c2nc(-c3ccccc3)c(-c3ccccc3)[nH]2)c1
- emission maximum (in CO): 440 nm

SMILES: COc1ccc(C2=C(c3ccc(F)cc3)C(c3ccccc3)=[N+]3C2=Nc2c(-c4ccc(OC)cc4)c(-c4ccc(F)cc4)c(-c4ccccc4)n2[B-]3(F)F)cc1
- emission maximum (in Cc1ccccc1): 692 nm

SMILES: COc1ccc([Si](C)(C)C)c2ccccc12
- emission maximum (in C1CCCCC1): 327 nm

SMILES: CC1(C)CC(/C=C/c2cn(-c3ccccc3)nc2-c2ccccc2)=CC(=C(C#N)C#N)C1
- emission maximum (in C1CCOC1): 556 nm
- emission maximum (in C1COCCO1): 548 nm
- emission maximum (in CCO): 564 nm
- emission maximum (in CCOC(C)=O): 564 nm
- emission maximum (in CN(C)C=O): 565 nm
- emission maximum (in CO): 561 nm
- emission maximum (in CS(C)=O): 578 nm
- emission maximum (in Cc1ccccc1): 542 nm
- emission maximum (in ClC(Cl)Cl): 550 nm
- emission maximum (in ClCCl): 550 nm

SMILES: C(#Cc1ccccc1)C(C#Cc1ccccc1)=Cc1ccc(C=C(C#Cc2ccccc2)C#Cc2ccccc2)cc1
- emission maximum (in ClC(Cl)Cl): 475 nm

SMILES: Cc1cc(=O)c2c(ccc3ccc(O)cc32)o1
- emission maximum (in CC#N): 430 nm

SMILES: CN(C)CCN(Cc1c2ccccc2cc2ccccc12)c1ccc([N+](=O)[O-])cc1[N+](=O)[O-]
- emission maximum (in C1CCCCC1): 391 nm
- emission maximum (in C1CCOC1): 394 nm
- emission maximum (in CC#N): 394 nm
- emission maximum (in CC(C)=O): 393 nm
- emission maximum (in CCO): 394 nm
- emission maximum (in CN(C)C=O): 396 nm
- emission maximum (in CO): 392 nm
- emission maximum (in CS(C)=O): 398 nm
- emission maximum (in ClC(Cl)Cl): 394 nm
- emission maximum (in ClCCl): 393 nm

SMILES: Cc1ccc(-n2c3ccccc3c3cc(C(=C(C#N)C#N)c4ccccc4)ccc32)cc1
- emission maximum (in C1CCOC1): 527 nm
- emission maximum (in CC#N): 545 nm
- emission maximum (in CC(C)=O): 567 nm
- emission maximum (in CCOC(C)=O): 540 nm
- emission maximum (in CO): 583 nm
- emission maximum (in CS(C)=O): 591 nm
- emission maximum (in Cc1ccccc1): 517 nm
- emission maximum (in ClC(Cl)Cl): 546 nm

SMILES: CCCCCCCCC1(CCCCCCCC)c2cc3c(cc2-c2sc(-c4ccc(/C=C5\SC(SCC)=NC5=O)c5nsnc45)cc21)C(CCCCCCCC)(CCCCCCCC)c1cc(-c2ccc(/C=C4\SC(SCC)=NC4=O)c4nsnc24)sc1-3
- emission maximum (in ClC(Cl)Cl): 718 nm

SMILES: C(=C\c1ccc(/C=C/c2ccc(N(c3ccccc3)c3ccccc3)cc2)cc1)/c1ccc(/C=C/c2ccc(N(c3ccccc3)c3ccccc3)cc2)cc1
- emission maximum (in ClCCl): 510 nm

SMILES: C[Si](C)(C)C#CC(C#C[Si](C)(C)C)=Cc1ccc(C=C(C#C[Si](C)(C)C)C#C[Si](C)(C)C)s1
- emission maximum (in ClC(Cl)Cl): 475 nm
